Test [1] relates to human breast cancer (MCF-7). As to the kind of experiment: Inhibition of tumour cell proliferation in vitro ([3H]thymidine incorporation), MCF-7. In kind it is cell-based. The following applies: MCF7, MCF-7, 24 hours, read-out: The median inhibition concentration (IC50, nM) of MCF-7. How it is done: (§1) The inhibition of tumour cell proliferation was studied using different types of human cancer cell lines. The cell lines under investigation were small cell lung carcinoma (NYH), non small cell lung carcinoma (NCI-H460), and breast cancer (MCF-7) using the following general procedure.
(§2) The cells were cultured in vitro for 24 hours in the presence of the compound under investigation. DNA synthesis was measured by incorporation of [3H]thymidine, and the median inhibitory concentrations (IC50) of the compounds were calculated.
A general note: Uptake of a labelled nucleoside into DNA is a usual measure of proliferation.

Test [2] relates to Yoshida sarcoma tumour-bearing rats. Put plainly: Prolongation of survival time of tumour-bearing rats. The class given is in vivo, LEW/Mol inbred female rats. How it is done: The prolongation of survival time of tumour-bearing rats was studied in LEW/Mol inbred female rats inoculated with Yoshida sarcoma cells in a number of 2×10^7 cells. Tumour-bearing rats (6 animals per group) were dosed orally once daily from day 3 after the transfer of tumour cells and until death or for a maximum of 21 days or until the body weights had increased by 10% as a consequence of tumour proliferation. The mean survival day of treated versus non-treated rats is used to calculate ILS (Increased Life Span). ILS=((mean treated/mean control)-1)*100%.

The subject of test [3] is human non small cell lung carcinoma (NCI-H460). Put plainly: Inhibition of tumour cell proliferation in vitro ([3H]thymidine incorporation), NCI-H460. In kind it is cell-based. Particulars: NCI-H460, 24 hours, read-out: The median inhibition concentration (IC50, nM) of NCI-H460. How it is done:
as §1, §2

Test [4] deals with human small cell lung carcinoma (NYH). As to the kind of experiment: Inhibition of tumour cell proliferation in vitro ([3H]thymidine incorporation), NYH. The class given is cell-based. Particulars: 24 hours, read-out: The median inhibition concentration (IC50, nM) of NYH. How it is done: as §1, §2
[5] abbreviates: 20 mg/kg p.o. once daily from day 3, ILS=((mean treated/mean control)-1)*100%.

Regarding `N#CNC(=Nc1ccncc1)NCCCCCc1ccccc1` [Example 1, N-Cyano-N'-(5-phenylpentyl)N"-4-pyridylguanidine], in test [1], the IC50 turned out to be 40 nM. The “Increased life span (ILS) %” value in test [2] (setting [5]) amounted to 49%.
Take `N#CNC(=Nc1ccncc1)NCCCCCCCCCc1ccccc1` [Example 5, N-Cyano-N'-(9-phenylnonyl)-N"-4-pyridylguanidine]: the IC50 in test [1] stood at 29 nM; in test [3], 5.8 nM; in test [4], 5.3 nM.
As for `N#CN=C(NCCCC/C=C\c1ccccc1)Nc1ccncc1` [Example 10, (Z)-N-Cyano-N'-(6-phenylhex-5-enyl)-N"-4-pyridylguanidine], the IC50 was found to be 54 nM in test [1], 135 nM in test [3] and 7.3 nM in test [4]. Moreover, the “Increased life span (ILS) %” value in test [2] (setting [5]) came out at 35%.
With `N#CN=C(NCC/C=C/C=C/c1ccccc1)Nc1ccncc1` [Example 12, (E,E)-N-Cyano-N'-(6-phenylhex-3,5-dienyl)-N"-4-pyridylguanidine], the values for the IC50 in test [1], in test [3] and in test [4] were 138 nM, 49 nM and 5.5 nM, respectively.
Turning to `N#CNC(=Nc1ccncc1)NCCCCC#Cc1ccccc1` [Example 14, N-Cyano-N'-(6-phenylhex-5-ynyl)-N"-4-pyridylguanidine], the IC50 in test [1] turned out to be 74 nM; in test [3], 78 nM; in test [4], 6.1 nM.
Taken in the same sequence, the figures for `CCCCCCCCCCCCNC(=Nc1ccncc1)NC#N` [Example 18, N-Cyano-N'-dodecyl-N"-4-pyridylguanidine] were 19 nM, 61 nM and 5 nM.
`N#CNC(=Nc1ccncc1)NCCCCCOc1ccccc1` [prior art B, N-Cyano-N'-(5-phenoxypentyl)-N"-4-pyridylguanidine, reference compound]: in test [2] (50 mg/kg p.o. once daily from day 3, ILS=((mean treated/mean control)-1)*100%), the “Increased life span (ILS) %” value is on record as 35%.

The record behind these values is US6197797A, “Cyanoguanidines as cell proliferation inhibitors” (Leo Pharmaceutical Products Ltd. A/S (L.o slashed.vens …, priority 1997, dated 2001).
